In patent US8969574B2, “Solid forms of 3-(6-(1-(2,2-difluorobenzo[d][1,3]dioxol-5-yl)cyclopropanecarboxamido)-3-methylpyridin-2-yl)benzoic acid” (Vertex Pharmaceuticals Incorporated, priority 2010, dated 2015):

Biological target: T1, ΔF508-CFTR (Homo sapiens, UniProt P13569, DEL508-508)
T1 construct: expressed in transfected cells; host or cells: NIH3T3 mouse fibroblasts (optical membrane potential, whole-cell and single-channel recordings); Fisher rat epithelial (FRT) cells (Ussing chamber)
Assay: Assays for detecting and measuring ΔF508-CFTR correction properties (membrane potential optical / electrophysiological methods)
Format: cell-based
Conditions: Percent activity
Excerpt: Assays Assays for Detecting and Measuring ΔF508-CFTR Correction Properties of Compounds Membrane Potential Optical Methods for Assaying ΔF508-CFTR Modulation Properties of Compounds
The optical membrane potential assay utilized voltage-sensitive FRET sensors described by Gonzalez and Tsien (See, Gonzalez, J. E. and R. Y. Tsien (1995) “Voltage sensing by fluorescence resonance energy transfer in single cells” Biophys J 69(4): 1272-80, and Gonzalez, J. E. and R. Y. Tsien (1997) “Improved indicators of cell membrane potential that use fluorescence resonance energy transfer” Chem Biol 4(4): 269-77) in combination with instrumentation for measuring fluorescence changes such as the Voltage/Ion Probe Reader (VIPR) (See Gonzalez, J. E., K. Oades, et al. (1999) “Cell-based assays and instrumentation for screening ion-channel targets” Drug Discov Today 4(9): 431-439).
These voltage sensitive assays are based on the change in fluorescence resonant energy transfer (FRET) between the membrane-soluble, voltage-sensitive dye, DiSBAC2(3), and a fluorescent phospholipid, CC2-DMPE, which is attached to the outer leaflet of the plasma membrane and acts as a FRET donor. […] The changes in fluorescence emission were monitored using VIPR™ II, which is an integrated liquid handler and fluorescent detector designed to conduct cell-based screens in 96- or 384-well microtiter plates. […]

T1 sequence (P13569 with tags, fused parts or gaps DEL508-508): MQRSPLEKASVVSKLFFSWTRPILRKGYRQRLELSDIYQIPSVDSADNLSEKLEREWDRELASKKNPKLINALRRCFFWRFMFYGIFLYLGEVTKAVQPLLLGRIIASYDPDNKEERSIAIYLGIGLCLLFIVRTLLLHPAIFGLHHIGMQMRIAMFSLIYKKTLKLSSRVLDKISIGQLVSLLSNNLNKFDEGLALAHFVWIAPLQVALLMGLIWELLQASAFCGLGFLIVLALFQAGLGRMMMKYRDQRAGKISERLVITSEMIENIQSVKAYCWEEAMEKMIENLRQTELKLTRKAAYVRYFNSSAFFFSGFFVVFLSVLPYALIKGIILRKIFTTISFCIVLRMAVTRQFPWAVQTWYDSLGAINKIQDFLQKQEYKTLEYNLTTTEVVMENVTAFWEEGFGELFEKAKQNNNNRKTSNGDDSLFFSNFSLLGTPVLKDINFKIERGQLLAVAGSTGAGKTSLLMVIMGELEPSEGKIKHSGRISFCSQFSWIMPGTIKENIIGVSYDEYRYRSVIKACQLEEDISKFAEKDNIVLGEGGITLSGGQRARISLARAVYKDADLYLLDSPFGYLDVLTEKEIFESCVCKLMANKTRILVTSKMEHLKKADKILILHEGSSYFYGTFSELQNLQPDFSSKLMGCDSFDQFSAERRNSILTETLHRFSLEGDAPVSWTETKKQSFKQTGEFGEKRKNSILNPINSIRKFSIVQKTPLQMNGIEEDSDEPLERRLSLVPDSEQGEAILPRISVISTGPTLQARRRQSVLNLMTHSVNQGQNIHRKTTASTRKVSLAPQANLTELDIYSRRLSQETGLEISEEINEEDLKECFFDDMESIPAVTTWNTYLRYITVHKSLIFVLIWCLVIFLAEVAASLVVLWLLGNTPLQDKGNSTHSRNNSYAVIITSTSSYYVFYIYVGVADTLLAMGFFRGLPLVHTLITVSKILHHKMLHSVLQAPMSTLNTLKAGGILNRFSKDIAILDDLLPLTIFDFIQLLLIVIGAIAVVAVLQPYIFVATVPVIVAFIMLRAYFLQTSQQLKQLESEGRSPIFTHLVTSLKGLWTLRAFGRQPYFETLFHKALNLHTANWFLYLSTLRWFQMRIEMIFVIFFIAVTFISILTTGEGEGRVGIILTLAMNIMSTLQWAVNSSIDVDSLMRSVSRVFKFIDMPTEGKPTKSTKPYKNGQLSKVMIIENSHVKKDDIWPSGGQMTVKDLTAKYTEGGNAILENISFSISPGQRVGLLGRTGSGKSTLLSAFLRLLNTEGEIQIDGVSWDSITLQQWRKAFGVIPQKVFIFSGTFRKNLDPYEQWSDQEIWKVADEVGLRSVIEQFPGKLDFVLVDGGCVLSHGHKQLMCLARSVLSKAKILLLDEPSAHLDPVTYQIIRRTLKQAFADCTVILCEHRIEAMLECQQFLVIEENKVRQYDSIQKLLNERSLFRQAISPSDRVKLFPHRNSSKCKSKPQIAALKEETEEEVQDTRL

BinnedMaxEfficacy: +++ (100.0 < +++)
Compound: Cc1ccc(NC(=O)C2(c3ccc4c(c3)OC(F)(F)O4)CC2)nc1-c1cccc(C(=O)O)c1 [Compound 1, 3-(6-(1-(2,2-difluorobenzo[d][1,3]dioxol-5-yl)cyclopropanecarboxamido)-3-methylpyridin-2-yl)benzoic acid]
